Key:
[1] = system: rats with Complete Freund's Adjuvant (CFA)-induced inflammation; experiment: Intrathecal icilin in CFA inflammatory pain model (PWL, PWT); format: in vivo, rat; conditions: icilin 10 nmol, i.t.
Procedure: Pain models were generated under halothane anaesthesia (Zeneca, Cheshire, UK). For the chronic constriction injury (CCI) model of neuropathic pain, four ligatures were tied loosely to constrict the sciatic nerve at mid-thigh level (as described previously^[39]). An inflammatory pain model was generated by injecting 100 μl of Complete Freund's Adjuvant (CFA, Sigma-Aldrich Ltd) into the ventral surface of the right hindpaw^[39]. A model of peripheral demyelination-induced pain was produced by focal application of lysolecithin to the sciatic nerve^[40]. Peak behavioural sensitisation was observed post-surgically between days 10-16 for CCI, 1-3 for CFA, and 7-14 for lysolecithin, when pharmacological and electrophysiological experiments and tissue removal were conducted.
(§1) Thermal sensitivity was assessed by measuring paw withdrawal latency (PWL, s) in response to a noxious thermal stimulus (Hargreaves' thermal stimulator, Linton Instrumentation, Diss, UK) directed to the hindpaw mid-plantar glabrous surface. Mechanical sensitivity was recorded as the paw withdrawal threshold (PWT, mN/mm^2) to calibrated von Frey filaments (Stoelting, Ill., US), as previously described^[39]. Sensitivity to noxious cold was assessed by placing animals in a waterbath with an aluminium floor containing 1 cm deep 4° C. water and counting the time the paw was held suspended over a 20 s period.
The following drugs were applied intrathecally in a 50 μl volume of saline-based vehicle at 37° C.: icilin (2.5-200 μM in saline with 0.2% dimethylformamide, DMF), LY 341495 (100 μM in saline), UBP 1112 (200 μM in saline), 2R,4R-APDC ((2R, 4R)-4-aminopyrrolidine-2,4-dicarboxylate), 300 μM in saline), ACPT-III ((1R,3R,4S)-1-aminocyclopentane-1,3,4-tricarboxylic acid), 3 mM in saline), AP-4, ((L-(1)-2-amino-4-phosphonobutyric acid), 3 mM in saline), naloxone (0.5 mM in saline), NMDA (75 μM in saline) and ACPC (1-aminocyclopropanecarboxylic acid, 15 μM in saline) (Tocris Cookson, Bristol, UK), (−)-menthol (1R,2S,5R-(−)-menthol, 4 mM in saline), cinnamaldehyde (1.5 mM in saline) and Ruthenium Red (5 μM in saline) (Sigma-Aldrich Co. Ltd, UK) and allicin (0.5 mM in saline with 0.5% DMF) and diallyl disulphide (DADS, 1 mM in saline with 0.5% DMF) (LKT Laboratories Inc., St Paul, Minn., USA). […] Behavioural reflex testing commenced 15 min following injection to allow recovery from anaesthesia^[40,41,42] and continued every 5 min thereafter until readings returned to baseline levels (n=6 in each case). […]
The TRPM8 channel activators, icilin and (−)-menthol were tested in CCI and naïve animals. The effects of icilin were additionally assessed in animals with CFA-induced inflammation or with lysolecithin-induced demyelination. […]

[2] = system: rats sensitised by the TRPA1 activator cinnamaldehyde; experiment: Cinnamaldehyde-induced sensitisation and its reversal by icilin (PWL, PWT); format: in vivo, rat; conditions: for Mean % reversal of mechanical sensitisation (after 15-30 mins) / Mean % reversal of thermal sensitisation (after 15-30 mins) / PWL (s) difference from control (+ icilin) / PWT (mN/mm^2) difference from control (+ icilin): icilin 10 nmol, i.t.
Procedure: as §1
The following drugs were applied intrathecally in a 50 μl volume of saline-based vehicle at 37° C.: icilin (2.5-200 μM in saline with 0.2% dimethylformamide, DMF), LY 341495 (100 μM in saline), UBP 1112 (200 μM in saline), 2R,4R-APDC ((2R, 4R)-4-aminopyrrolidine-2,4-dicarboxylate), 300 μM in saline), ACPT-III ((1R,3R,4S)-1-aminocyclopentane-1,3,4-tricarboxylic acid), 3 mM in saline), AP-4, ((L-(1)-2-amino-4-phosphonobutyric acid), 3 mM in saline), naloxone (0.5 mM in saline), NMDA (75 μM in saline) and ACPC (1-aminocyclopropanecarboxylic acid, 15 μM in saline) (Tocris Cookson, Bristol, UK), (−)-menthol (1R,2S,5R-(−)-menthol, 4 mM in saline), cinnamaldehyde (1.5 mM in saline) and Ruthenium Red (5 μM in saline) (Sigma-Aldrich Co. Ltd, UK) and allicin (0.5 mM in saline with 0.5% DMF) and diallyl disulphide (DADS, 1 mM in saline with 0.5% DMF) (LKT Laboratories Inc., St Paul, Minn., USA). Drugs were injected into the L5/6 intrathecal space under brief halothane anaesthesia, using a 25-gauge needle microsyringe (BD Biosciences, Oxford, UK), as described previously^[39] in animals that were at peak levels of behavioural sensitisation. Behavioural reflex testing commenced 15 min following injection to allow recovery from anaesthesia^[40,41,42] and continued every 5 min thereafter until readings returned to baseline levels (n=6 in each case). We, and others^[40,41,42] find complete recovery from anaesthetic by 15 minutes. All appropriate controls were carried out to eliminate the possibility of effects due to vehicle or to injection procedure.
The TRPM8 channel activators, icilin and (−)-menthol were tested in CCI and naïve animals. The effects of icilin were additionally assessed in animals with CFA-induced inflammation or with lysolecithin-induced demyelination. Icilin was also co-administered with the μ-opioid receptor antagonist naloxone, the Group II metabotropic glutamate receptor (mGluR) antagonist, LY 341495, or the Group III mGluR antagonist, UBP 1112. The effects of these antagonists alone as well as effects of the Group II mGluR agonist, 2R,4R-APDC and the Group III mGluR agonists, ACPT-III and AP-4, were assessed in CCI animals. The TRPA1 channel activator, cinnamaldehyde, alone and with icilin, was tested in CCI animals and in naïve animals. Further TRPA1 channel activators, allicin and diallyl disulphide were assessed in naïve animals. Both icilin and cinnamaldehyde effects in CCI animals were also investigated in the additional presence of Ruthenium Red.
Icilin was applied at concentrations of 2.5-500 μM (in water with 0.2% DMF), by placing CCI or naïve rats unrestrained for 5 min in a 1 cm deep waterbath (sufficient to cover paws), which was thermostatically controlled to a temperature of 30° C., or by very lightly anaesthetising rats and immersing hindpaws in small tubes containing 5 ml icilin (500 μM-5 mM, with a vehicle of 45% dimethylformamide in 0.2% aqueous Tween 80) for 5 min, followed by sensory testing for 60-80 mins. The effects of (−)-menthol and its stereoisomers isomenthol (1S,2R,5R-menthol,) and (+)-menthol (1S,2R,5S(+)-menthol) (4-16 mM in 80% ethanol) were also assessed. Relevant vehicles were always assessed in similar experiments. As a contrast, the effect of cinnamaldehyde (1.5 mM in water) and the effect of cinnamaldehyde with additional icilin (80 μM in water with 0.2% DMF) were assessed in naïve animals. […]

[3] = system: CCI model of neuropathic pain; experiment: Cold allodynia in CCI model, Peltier controlled footplate; format: in vivo, rat; conditions: icilin 200 μM topical
Procedure: In the CCI model of neuropathic pain, cold allodynia was assessed by scoring the number of paw flick-associated paw withdrawals from a Peltier controlled footplate that was reduced in temperature from control (30° C.) to mild cooling (20° C.). Icilin (200 μM) was applied topically (as in FIG. 1). Values are shown as means±SEM, ipsilateral (⋄) to nerve injury. † Indicates statistically significant reversal of cool allodynia.

[4] = system: model of cancer-induced bone pain; experiment: Cancer-induced bone pain model (von Frey, rotarod paw lifts); format: in vivo; conditions: topical icilin
Excerpt: The model of cancer-induced bone pain was set up according to Medhurst et al., 2002 Pain 96: 129-40.

Compound: O=C1NC(c2cccc([N+](=O)[O-])c2)=CCN1c1ccccc1O [icilin, 1-(2′-hydroxyphenyl)-4-(3″-nitrophenyl)-1,2,3,6-tetrahydropyrimidin-2-one]
- Mean % reversal of mechanical sensitisation (after 15-30 mins) [1]: 42.6 ± 2.8%
- Mean % reversal of thermal sensitisation (after 15-30 mins) [1]: 66.0 ± 7.5%
- PWL (s) difference from control (+ icilin) [1]: 1.6 ± 1.6 s
- PWT (mN/mm^2) difference from control (+ icilin) [1]: 1707.6 ± 149.9 mN/mm^2
- Mean % reversal of mechanical sensitisation (after 15-30 mins) ([2]; Cinnamaldehyde (intrathecal)): 92.6 ± 2.8%
- Mean % reversal of thermal sensitisation (after 15-30 mins) ([2]; Cinnamaldehyde (intrathecal)): 91.5 ± 4.1%
- PWL (s) difference from control (+ icilin) ([2]; Cinnamaldehyde (intrathecal)): 0.5 ± 1.8 s
- PWT (mN/mm^2) difference from control (+ icilin) ([2]; Cinnamaldehyde (intrathecal)): 150.3 ± 125.2 mN/mm^2
- Mean % reversal of mechanical sensitisation (after 15-30 mins) ([2]; Cinnamaldehyde (topical)): 100.0 ± 0.0%
- Mean % reversal of thermal sensitisation (after 15-30 mins) ([2]; Cinnamaldehyde (topical)): 92.0 ± 6.1%
- PWL (s) difference from control (+ icilin) ([2]; Cinnamaldehyde (topical)): 0.4 ± 1.6 s
- PWT (mN/mm^2) difference from control (+ icilin) ([2]; Cinnamaldehyde (topical)): 0.0 ± 0.0 mN/mm^2
- effect on sensitisation by topical cinnamaldehyde ([2]; topical icilin 200 μM, data not shown): reversed
- analgesia against cold allodynia (paw withdrawals, footplate 30° C. to 20° C.) [3]: provides analgesia against the cold allodynia
- analgesia in cancer-induced bone pain (mechanical allodynia, movement-evoked pain) [4]: causes analgesia
